Key:
[1] = molecular target: CDK4 (Homo sapiens (Human), UniProt P11802); experiment: CDK4 protein kinase activity, Caliper mobility shift assay; type: biochemical; details: GST-CDK4(1-303 end), substrate Peptide FAM-P8, 28° C. for 3 h
Experimental: (§1) activity assay: The CDK4 protein kinase activity was measured using the Caliper mobility shift assay (see J. Biomol. Screen, 2009, PP31). The test compound was dissolved in DMSO and diluted with a kinase buffer solution (20 mM HEPES-pH 7.5, 0.01% Triton X-100, 10 mM MgCl2, 2 mM DTT) and 5 μL of compound at 5-fold final concentration of reaction dissolved in 10% DMSO was added in a 384-well plate. The compound-free control well was 5 μL of 10% DMSO, and the no-activity control well was 5 μL of kinase buffer. 10 μL of a 2.5-fold diluted CDK4 enzyme solution (GST-CDK4(1-303 end)) was added and incubated at room temperature for 10 min, and then 10 μL of the 2.5-fold diluted substrate solution Peptide FAM-P8 was added. The reaction was stopped by adding 25 μL of stop solution after incubation at 28° C. for 3 h, and the conversion rate data was read on a Caliper EZ Reader II (Caliper Life Sciences) and the conversion rate was converted to inhibition rate data according to above method. Among them, the inhibition rate %=(max−conversion)/(max−min)×100%.

[2] = molecular target: CDK6 (Homo sapiens (Human), UniProt Q00534); experiment: CDK6 protein kinase activity, Caliper mobility shift assay; type: biochemical; details: GST-CDK6(1-326 end), substrate Peptide FAM-P8, 28° C. for 3 h
Experimental: as §1, with “Activity Assay:” for “activity assay:”, “CDK6” for “CDK4”, “(GST-CDK6(1-326” for “(GST-CDK4(1-303”

Sequence of CDK4 (P11802 whole entry): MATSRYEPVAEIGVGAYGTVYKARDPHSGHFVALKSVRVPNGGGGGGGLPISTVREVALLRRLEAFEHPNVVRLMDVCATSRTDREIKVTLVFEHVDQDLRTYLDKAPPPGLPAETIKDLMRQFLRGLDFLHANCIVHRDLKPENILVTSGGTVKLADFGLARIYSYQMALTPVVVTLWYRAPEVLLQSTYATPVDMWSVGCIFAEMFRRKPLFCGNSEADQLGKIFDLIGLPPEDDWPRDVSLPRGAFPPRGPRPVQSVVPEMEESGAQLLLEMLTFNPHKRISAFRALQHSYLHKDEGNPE
Sequence of CDK4 (P30281 whole entry partner): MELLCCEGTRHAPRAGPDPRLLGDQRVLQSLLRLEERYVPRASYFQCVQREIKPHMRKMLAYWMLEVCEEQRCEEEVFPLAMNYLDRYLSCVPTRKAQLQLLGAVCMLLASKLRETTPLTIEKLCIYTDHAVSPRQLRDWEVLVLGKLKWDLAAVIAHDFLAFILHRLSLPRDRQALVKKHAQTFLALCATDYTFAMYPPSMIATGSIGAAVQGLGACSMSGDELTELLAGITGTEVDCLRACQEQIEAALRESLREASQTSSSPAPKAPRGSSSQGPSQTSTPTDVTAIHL
Sequence of CDK6 (Q00534 whole entry): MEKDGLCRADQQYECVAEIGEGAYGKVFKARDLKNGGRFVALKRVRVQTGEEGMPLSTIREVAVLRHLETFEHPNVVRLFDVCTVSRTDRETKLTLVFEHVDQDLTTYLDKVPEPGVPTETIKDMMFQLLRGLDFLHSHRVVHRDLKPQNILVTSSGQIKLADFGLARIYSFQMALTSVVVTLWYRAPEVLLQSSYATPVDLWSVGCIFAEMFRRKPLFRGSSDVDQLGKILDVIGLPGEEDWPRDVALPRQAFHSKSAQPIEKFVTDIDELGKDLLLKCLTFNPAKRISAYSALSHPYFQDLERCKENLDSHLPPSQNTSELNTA
Sequence of CDK6 (P30281 whole entry partner): as the sequence (P30281 whole entry partner) above

IC50 [1] [nM]	IC50 [2] [nM]	Compound
≤ 20	20 to 100	CCN1CCN(Cc2ccc(Nc3ncc(F)c(-c4ccc5c(cc(C(=O)N(C)C)n5C(C)C)n4)n3)nc2)CC1 [Compound I-26, N-(5-(4-ethylpiperazine-1-methyl)-pyridin-2-yl)-5-fluoro-4-(1-isopropyl-2-formic acid diformamido-1H-4-azaindol-5-yl)pyrimidin-2-amine]
≤ 20	≤ 20	CCN1CCN(Cc2ccc(Nc3ncc(F)c(-c4ccc5c(cc(C(=O)N(C)C)n5C(C)C)c4F)n3)nc2)CC1 [Compound I-27, N-(5-(4-ethylpiperazine-1-methyl)-pyridin-2-yl)-5-fluoro-4-(1-isopropyl-2-formic acid diformamido-1H-4-fluoroindol-5-yl)pyrimidin-2-amine]
≤ 20	20 to 100	CC(C)n1c(C(=O)N(C)C)cc2c(F)c(-c3nc(Nc4ccc(N5CCNCC5)cn4)ncc3F)ccc21 [Compound I-28, N-(5-(piperazin-1-yl)-pyridin-2-yl)-5-fluoro-4-(1-isopropyl-2-formic acid diformamido-1H-4-fluoroindol-5-yl)pyrimidin-2-amine]
≤ 20	≤ 20	CC(=O)c1c2ccc(-c3nc(Nc4ccc(N5CCNCC5)cn4)ncc3F)nc2nn1C1CC1 [Compound I-29, N-(5-(piperazin-1-yl)-pyridin-2-yl)-5-fluoro-4-(2-cyclopropyl-3-acetyl-2H-7-azaindazol-6-yl)pyrimidin-2-amine]
≤ 20	≤ 20	CN(C)C(=O)c1c2ccc(-c3nc(Nc4ccc(N5CCNCC5)cn4)ncc3F)c(F)c2nn1C [Compound I-31, N-(5-(piperazin-1-yl)-pyridin-2-yl)-5-fluoro-4-(2-methyl-3-formic acid diformamido-2H-7-fluoro-indazol-6-yl)pyrimidin-2-amine]
≤ 20	20 to 100	CC(=O)c1nc(C2CC2)n2cc(-c3nc(Nc4ccc(N5CCNCC5)cn4)ncc3F)cc(F)c12 [Compound I-32, N-(5-(piperazin-1-yl)-pyridin-2-yl)-5-fluoro-4-(1-acetyl-3-cyclopropyl-8-fluoro-imidazolo[1,5-a]pyridin-6-yl)pyrimidin-2-amine]
≤ 20	≤ 20	CCN1CCN(Cc2ccc(Nc3ncc(F)c(-c4ccc5nnc(C(F)(F)F)n5c4)n3)nc2)CC1 [Compound I-33, N-(5-(4-ethylpiperazine-1-methyl)-pyridin-2-yl)-5-fluoro-4-(3-trifluoromethyl-[1,2,4]triazolo[4,3-a]pyridin-6-yl)pyrimidin-2-amine]
≤ 20	≤ 20	CCN1CCN(Cc2ccc(Nc3ncc(F)c(-c4ccc5ncc(C#N)n5c4)n3)nc2)CC1 [Compound I-34, N-(5-(4-ethylpiperazine-1-methyl)-pyridin-2-yl)-5-fluoro-4-(3-cyano-imidazo[1,2-a]pyridin-6-yl)pyrimidin-2-amine]
20 to 100	20 to 100	CCN1CCN(Cc2ccc(Nc3ncc(F)c(-c4ccc5nnc(C(C)=O)n5c4)n3)nc2)CC1 [Compound I-35, N-(5-(4-ethylpiperazine-1-methyl)-pyridin-2-yl)-5-fluoro-4-(3-acetyl-[1,2,4]triazolo[4,3-a]pyridin-6-yl)pyrimidin-2-amine]
≤ 20	≤ 20	CCN1CCN(Cc2ccc(Nc3ncc(F)c(-c4ccc5nnc(C6CC6)n5c4)n3)nc2)CC1 [Compound I-36, N-(5-(4-ethylpiperazin-1-methyl)-pyridin-2-yl)-5-fluoro-4-(3-cyclopropyl-[1,2,4]triazolo[4,3-a]pyridin-6-yl)pyrimidin-2-amine]
≤ 20	20 to 100	CN1CCN(c2ccc(Nc3ncc(F)c(-c4ncc5nc(C(=O)N(C)C)n(C6CCCC6)c5n4)n3)nc2)CC1 [Compound I-37]
≤ 20	≤ 20	CC(=O)c1nc2cnc(-c3nc(Nc4ccc(CN5CCN(C)CC5)cn4)ncc3F)nc2n1C(C)C [Compound I-38, N-(5-(4-methylpiperazine-1-methyl)-pyridin-2-yl)-5-fluoro-4-(9-isopropyl-8-acetyl-9H-purin-2-yl)pyrimidin-2-amine]
≤ 20	≤ 20	CCC(CC)n1c(C(C)C)nc2cnc(-c3nc(Nc4ccc(CN5CCN(C)CC5)cn4)ncc3F)nc21 [Compound I-39, N-(5-(4-methylpiperazin-1-methyl)-pyridin-2-yl)-5-fluoro-4-(9-(3-pentyl)-8-isopropyl-9H-purin-2-yl)pyrimidin-2-amine]
≤ 20	≤ 20	CCN1CCN(Cc2ccc(Nc3ncc(F)c(-c4ncc5nc(C(=O)N(C)C)n(C)c5n4)n3)nc2)CC1 [Compound I-40, N-(5-(4-ethylpiperazin-1-methyl)-pyridin-2-yl)-5-fluoro-4-(9-methyl-8-formic acid diformamido-9H-purin-2-yl)pyrimidin-2-amine]
≤ 20	≤ 20	CCN1CCN(Cc2ccc(Nc3ncc(F)c(-c4ncnc5c4cc(C(C)=O)n5C4CC4)n3)nc2)CC1 [Compound I-41, N-(5-(4-ethylpiperazine-1-methyl)-pyridin-2-yl)-5-fluoro-4-(6-acetyl-7-cyclopropyl-7H-pyrrolo[2,3-d]pyrimidin-4-yl)pyrimidin-2-amine]
≤ 20	20 to 100	CCN1CCN(Cc2ccc(Nc3ncc(F)c(-c4ncnc5c4c(C#N)cn5C)n3)nc2)CC1 [Compound I-42, N-(5-(4-ethylpiperazine-1-methyl)-pyridin-2-yl)-5-fluoro-4-(5-cyano-7-methyl-7H-pyrrolo[2,3-d]pyrimidin-4-yl)pyrimidin-2-amine]
20 to 100	20 to 100	CCN1CCN(Cc2ccc(Nc3ncc(F)c(-c4ccc5c(c(C)nn5C5CCCC5)c4F)n3)nc2)CC1 [Compound I-45, N-(5-(4-ethylpiperazine-1-methyl)-pyridin-2-yl)-5-fluoro-4-(1-cyclopentyl-3-methyl-4-fluoro-1H-indazol-5-yl)pyrimidin-2-amine]
20 to 100	20 to 100	CCN1CCN(Cc2ccc(Nc3ncc(F)c(-c4ccc5c(n4)c(C(F)(F)F)nn5C4CCCC4)n3)nc2)CC1 [Compound I-46, N-(5-(4-ethylpiperazine-1-methyl)-pyridin-2-yl)-5-fluoro-4-(1-cyclopentyl-3-trifluoromethyl-4-aza-1H-indazol-5-yl)pyrimidin-2-amine]
≤ 20	20 to 100	Cc1nc2cnc(-c3nc(Nc4ccc(N5CCN(C)CC5)cn4)ncc3F)nc2n1C(C)C [Compound I-47, N-(5-(4-methylpiperazin-1-yl)-pyridin-2-yl)-5-fluoro-4-(9-isopropyl-8-methyl-9H-purin-2-yl)pyrimidin-2-amine]
≤ 20	100 to 500	CCN1CCN(c2ccc(Nc3ncc(F)c(-c4ncc5nc(C)n(C(C)C)c5n4)n3)nc2)CC1 [Compound I-48, N-(5-(4-ethylpiperazin-1-yl)-pyridin-2-yl)-5-fluoro-4-(9-isopropyl-8-methyl-9H-purin-2-yl)pyrimidin-2-amine]

Compound	IC50 [1] [nM]	IC50 [2] [nM]
CN(C)C(=O)c1nn(C2CCCC2)c2ccc(-c3nc(Nc4ccc(N5CCNCC5)cn4)ncc3F)cc12 [Compound I-43, N-(5-(piperazin-1-yl)-pyridin-2-yl)-5-fluoro-4-(1-cyclopentyl-3-formic acid diformamido-1H-indazol-5-yl)pyrimidin-2-amine]	≤ 20	≤ 20
CCN1CCN(Cc2ccc(Nc3ncc(F)c(-c4ccc5c(c4)c(C(C)=O)nn5C(C)C)n3)nc2)CC1 [Compound I-44, N-(5-(4-ethylpiperazine-1-methyl)-pyridin-2-yl)-5-fluoro-4-(1-isopropyl-3-acetyl-1H-indazol-5-yl)pyrimidin-2-amine]	≤ 20	> 500
